Laboratory results taken from US20150299155A1, “Sesquiterpene lactone-based pharmaceutical composition for treating gastrointestinal diseases” (CHO DANG PHARM. CO., LTD., priority 2012, published 2015).
Marks after values point to notes of the source that are not given here.

Columns and labels:
[1] = system: HCl-Ethanol inducing gastritis model; assay: HCl-Ethanol inducing gastritis model; format: in vivo, white rats; details: for anti-gastritis efficacy: all administration groups
Experimental: After white rats have been fasted for 24 hours, CD-101, CD-102 and CD-103 compound have been orally administered according to method disclosed in Mizui et al., Jap. J. Pharmacol. 33: pp. 939-945 (1983). After 1 hour, 1.5 ml of 60% ethanol including 150 mM HCl has been orally administered to each animal. 1 hour later, animals have been sacrificed by cervical dislocation. After removing the stomach, the stomach has been fixed by injection of 13 ml of 2% formalin for 1 hour. After fixed stomach has been spread out, the lesion area has been measured using the photo by digital camera. Computer program Image J 1.38 (NIH, Bethesda, Md.) has been applied for measuring gastric lesion area (mm^2) The lesion inhibition rate has been calculated according to following equation. Further, 50% effective dose (ED50) has been also calculated using regression analysis.
Lesion inhibition rate(%)={gastric lesion area of control group(mm^2)−gastric lesion area of drug administration group(mm^2)}/gastric lesion area of control group(mm^2)×100

[2] = system: indomethacin inducing stomach ulcer model; assay: Indomethacin inducing stomach ulcer model; format: in vivo, white rats; details: oral; for anti-stomach ulcer efficacy: all administration groups
Experimental: After white rats have been fasted for 24 hours, CD-101, CD-102 and CD-103 compound have been orally administered according to method disclosed in Yamasaki et al., Jap. J. Pharmacol. 49: pp. 441-448 (1989). After 1 hour, indomethacin (50 mg/kg) has been orally administered to each animal After fasting for 5 hours, animals have been sacrificed by cervical dislocation. After removing the stomach, the stomach has been fixed by injection of 13 ml of 2% formalin for 1 hour. After fixed stomach has been spread out, the lesion area has been measured using the photo by digital camera. Computer program Image J 1.38 (NIH, Bethesda, Md.) has been applied for measuring gastric lesion area (mm^2) The lesion inhibition rate and 50% effective dose (ED50) have been calculated as the same manner of HCl-EtOH model.

[3] = system: Chinese hamster lung (CHL) cell; assay: Chromosomal aberration test using Chinese hamster lung (CHL) cell; format: cell-based; details: for induction of chromosomal aberration: CHL cell, overall conclusion
Excerpt: For measuring the induction of chromosomal aberration, the chromosomal aberration test has been carried out using Chinese hamster lung (CHL) cell. 2 kinds of methods have been adopted, such as, metabolic activation method (+S9) using metabolic activation system and direct method (−S9) without metabolic activation system.
For determining the test material reacting concentration, the cell growth inhibition test has been carried out. The test material has been dissolved and diluted in dimethyl sulfoxide (DMSO). Regardless of metabolic activation system, 12 concentration steps (2.43, 4.87, 9.75, 19.5, 39.1, 78.1, 156.3, 312.5, 625, 1250, 2500, 5000 μg/ml) of test material have been prepared. The cells have been cultured for 24 hours as the same way of main test. […] The medium has been further cultured for 18 hours.
Based upon the data of cell growth inhibition test, maximum concentration has been determined when the cell growth has been inhibited up to 50% as the relative cell numbers.
Regardless of metabolic activation system, the test materials have been prepared after 24 hours from the initiation of test. Then, the number of chromosomal aberration has been counted.

Row | Chromosomal aberration test Results ([3]; +S9, dose 10 μg/kg) | induction of chromosomal aberration [3] | Chromosomal aberration test Results ([3]; −S9, dose 2.5 μg/ml) | Chromosomal aberration test Result ([3]; Table 5, +S9, dose not stated) | Chromosomal aberration test Result ([3]; Table 5, −S9, dose not given) | SMILES | anti-gastritis efficacy ([1]; oral) | Lesion inhibition rate ([1]; oral, dose 1 mg/kg) [%] | Lesion inhibition rate ([1]; oral, dose 3 mg/kg) [%] | Lesion inhibition rate ([1]; oral, dose 10 mg/kg) [%] | anti-stomach ulcer efficacy [2] | Lesion inhibition rate ([2]; dose 1 mg/kg) [%] | Lesion inhibition rate ([2]; dose 3 mg/kg) [%] | Lesion inhibition rate ([2]; dose 10 mg/kg) [%] | further results
1 |  |  |  |  |  | CC1=C2C3OC(=O)[C@@H](C)[C@@H]3CC[C@@]2(C)C=CC1=O (stereo partly drawn) |  |  |  |  |  |  |  |  | Lesion inhibition rate ([1]; Table 2, ineffective compounds, dose not stated): no effect
2 | negative | do not induce the chromosomal aberration | negative |  |  | C=C1C(=O)O[C@@H]2[C@@H](O)[C@]3(C)CC[C@H]3[C@](C)(OC)CC[C@@H]12 [CD-101] | dose dependent manner | 42.3 | 74.7 | 91.8 | dose dependent manner | 26.9 | 56.6 | 73.1 | Chromosomal aberration test Results ([3]; +S9, dose 20 μg/kg): negative; Chromosomal aberration test Results ([3]; +S9, dose 40 μg/kg): negative; Chromosomal aberration test Results ([3]; −S9, dose 5 μg/kg): negative; Chromosomal aberration test Results ([3]; −S9, dose 10 μg/kg): negative
3 | negative | do not induce the chromosomal aberration | negative |  |  | C=C1C(=O)O[C@@H]2[C@@H]3[C@@H](CC[C@@]3(C)O)C(=C)CC[C@@H]12 [CD-102] | dose dependent manner | 43.0 | 70.4 | 94.9 | dose dependent manner | 41.6 | 56.1 | 77.2 | ED50 ([1]; Rattus norvegicus, oral, regression analysis of lesion inhibition, read-out: 50% effective dose (ED50)): 1.31 mg/kg; Gastric lesion area ([1]; oral, dose 1 mg/kg): 133.5 ± 21.0* mm^2; Gastric lesion area ([1]; oral, dose 3 mg/kg): 69.4 ± 18.4* mm^2; Gastric lesion area ([1]; oral, dose 10 mg/kg): 11.9 ± 10.0* mm^2; ED50 ([2]; Rattus norvegicus, regression analysis of lesion inhibition, read-out: 50% effective dose (ED50)): 1.82 mg/kg; Gastric lesion area ([2]; dose 1 mg/kg): 35.0 ± 5.2 mm^2; Gastric lesion area ([2]; dose 3 mg/kg): 26.3 ± 6.8* mm^2; Gastric lesion area ([2]; dose 10 mg/kg): 13.6 ± 2.9* mm^2; Chromosomal aberration test Results ([3]; +S9, dose 5 μg/kg): negative; Chromosomal aberration test Results ([3]; +S9, dose 20 μg/kg): negative; Chromosomal aberration test Results ([3]; −S9, dose 1.25 μg/kg): negative; Chromosomal aberration test Results ([3]; −S9, dose 5 μg/kg): negative
4 | negative | do not induce the chromosomal aberration | negative |  |  | C=C1C(=O)O[C@@H]2[C@@H]3[C@@H](CC[C@@]3(C)O)[C@](C)(OC)CC[C@@H]12 [CD-103] | dose dependent manner | 56.9 | 66.9 | 99.5 | dose dependent manner | 37.9 | 57.3 | 74.0 | Lesion inhibition rate ([1]; oral, dose 30 mg/kg): 99.5%; 50% effective dose (ED50) ([1]; oral, regression analysis of lesion inhibition): 2.55 mg/kg; 50% effective dose (ED50) ([2]; regression analysis of lesion inhibition): 2.06 mg/kg; Chromosomal aberration test Results ([3]; +S9, dose 2.5 μg/ml): negative; Chromosomal aberration test Results ([3]; +S9, dose 5 μg/kg): negative; Chromosomal aberration test Results ([3]; −S9, dose 0.625 μg/kg): negative; Chromosomal aberration test Results ([3]; −S9, dose 1.25 μg/kg): negative
5 |  |  |  |  |  | CO[C@@]12[C@H](COC(N)=O)C3=C(C(=O)C(C)=C(N)C3=O)N1C[C@@H]1N[C@@H]12 [Mitomycin C, reference compound] |  |  |  |  |  |  |  |  | Chromosomal aberration test Results ([3]; −S9, dose 0.5 μg/kg): positive
6 |  |  |  |  |  | O=C(NC(Cc1cc(=O)[nH]c2ccccc12)C(=O)O)c1ccc(Cl)cc1 (stereo not drawn) [Rebamipide, reference compound] |  |  |  |  |  |  |  |  | Lesion inhibition rate ([1]; oral, dose 50 mg/kg): 30%; Lesion inhibition rate ([2]; dose 50 mg/kg): 49.6%
7 |  |  |  | positive positive | positive positive | C=C1C(=O)O[C@@H]2/C=C(\C)CC/C=C(\C)C[C@@H](OC(C)=O)C12 (stereo partly drawn) [reference compound] |  |  |  |  |  |  |  |  | 
8 |  |  |  | positive positive | positive positive | C=C1C(=O)O[C@@H]2/C=C(\C)CCC(O)C(C)(O)C[C@@H](OC(C)=O)C12 (stereo partly drawn) [reference compound] |  |  |  |  |  |  |  |  | 
9 |  |  |  | positive positive | positive positive | CC(=O)O[C@@H]1/C=C(\C)CCC/C(C)=C/[C@H]2OC(=O)[C@H](CN(C)C)C12 (stereo partly drawn) [reference compound] |  |  |  |  |  |  |  |  | 
